Target: T1, NbDER (MBP:NbDER) (Nicotiana benthamiana, UniProt R4N342, S369A)
T1 construct: gene YphC; without N-terminal chloroplast transit peptide (Met-1 to Ser-60); N-terminal MBP tag kept; E. coli; precursor 651 residues; GD1, GD2 and CTD present; fusion proteins approximately 60-107 kDa
Assay: phosphate release, Biomol green
Type: biochemical
Details: 1 mM GTP, 3 uM protein, HEPES pH 8, 1 mM Mg (printed MgCl4), room temperature, 18 h

T1 sequence (R4N342 entry or part of it S369A): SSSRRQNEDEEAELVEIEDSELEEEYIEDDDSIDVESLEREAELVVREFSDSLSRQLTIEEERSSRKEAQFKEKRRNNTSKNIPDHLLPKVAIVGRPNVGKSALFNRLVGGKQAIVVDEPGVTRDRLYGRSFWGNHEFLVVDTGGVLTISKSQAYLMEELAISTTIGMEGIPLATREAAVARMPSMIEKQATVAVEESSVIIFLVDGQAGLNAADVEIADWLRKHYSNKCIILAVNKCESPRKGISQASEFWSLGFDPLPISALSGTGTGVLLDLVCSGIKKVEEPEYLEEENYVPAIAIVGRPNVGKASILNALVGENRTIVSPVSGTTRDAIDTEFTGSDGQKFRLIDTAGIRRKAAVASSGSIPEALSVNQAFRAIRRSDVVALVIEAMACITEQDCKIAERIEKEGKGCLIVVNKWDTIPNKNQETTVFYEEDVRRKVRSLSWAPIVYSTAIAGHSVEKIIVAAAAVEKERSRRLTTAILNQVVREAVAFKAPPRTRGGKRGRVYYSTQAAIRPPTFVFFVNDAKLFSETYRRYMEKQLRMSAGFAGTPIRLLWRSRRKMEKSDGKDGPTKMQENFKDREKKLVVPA

## Nc1nc2c(ncn2[C@@H]2O[C@H](COP(=O)(O)OP(=O)(O)OP(=O)(O)O)[C@@H](O)[C@H]2O)c(=O)[nH]1 [GTP]
  phosphate release, Biomol green: S162A or S369A mutation in NbDER (PM1 or PM2) reduced the k cat values

Source: paper PMC3883289, “DER containing two consecutive GTP-binding domains plays an essential role in chloroplast ribosomal RNA processing and ribosome biogenesis in higher plants” (Journal of Experimental Botany, 2013)
